Data from publication PMC8370991, “Structural basis for the inhibition of HTLV-1 integration inferred from cryo-EM deltaretroviral intasome structures” (Nature Communications, 2021).
Where two headings read alike, the source gives them in different places.

Molecular target: T1, recombinant HTLV-1 IN (Human T-cell leukemia virus 1, UniProt P03362)
T1 construct: made in house
Assay: In vitro integration strand transfer assay with HTLV-1 IN
Format: biochemical
Conditions: for HTLV-1 IN strand transfer activity (No drug = 100): INSTI at 634 nM; for IC50 compared with that of RAL: dose-response strand transfer assays
Protocol: We used in vitro strand transfer assays to screen this small molecule library for its ability to inhibit recombinant HTLV-1 IN. The enzyme was incubated with an oligonucleotide vDNA donor mimic in the presence or absence of INSTIs and was allowed to react with a supercoiled plasmid mimicking target DNA. During the screening, the concentration of each compound was adjusted to 634 nM to provide optimal resolution of efficacy between well- and under-performing compounds.
The donor vDNA that mimics the 3′-processed LTR of HTLV-1 or STLV-1 DNA was preassembled by annealing the U5_S20Q_UP and U5_S20Q_B or MarB43_U5_S30UP or MarB43_U5_S30B oligonucleotides, respectively (Supplementary Table 4) in 100 mM Tris pH 7.4, 400 mM NaCl. For HTLV-1 IN, strand transfer reactions were conducted in a solution of 24.3 mM PIPES pH 6.0, 138.4 mM NaCl, 16.6 mM MgCl2, 5.8 μM ZnCl2, 12.7 mM DTT, 0.53 μM donor DNA and 4 μg of HTLV-1 IN[9],[39]. In brief, the reaction was incubated at RT for 15 min in the presence of an INSTI or dimethyl sulfoxide (DMSO) control and the reaction was started by the addition of 300 ng of pGEM-9Zf(-) supercoiled plasmid DNA. The reaction was incubated for 1 h at 37 °C and stopped by adding 0.5% SDS and 25 mM ethylenediaminetetraacetic acid (EDTA), pH 8.0.
Proteins were degraded by incubation with 30 μg of proteinase K (Roche) at 37 °C for 1 h. DNA was precipitated at −20 °C overnight in the presence of ethanol supplemented with 20 μg of glycogen and then resuspended in 1.5× agarose loading dye. The DNA products were separated by electrophoresis through 1.5% agarose gel and stained with ethidium bromide and imaged using the BioRad GelDox XR + imager. The data were analysed and the IC50 calculated as previously described. In brief, the DNA band that corresponds to the concerted integration product was quantified by densitometry in ImageLab 4.1 (Bio-Rad). All experiments were done in triplicate. Quantified data points were fitted to dose–response curves in Prism 9. The cumulative standard deviation for each drug was calculated as an average of the upper limit and lower limit values: Lowerlimit=IC50/10^logSE(IC50) Upperlimit=IC50×10^logSE(IC50)

[1] = Replicate 1, read-out: HTLV-1 IN strand transfer IC50
[2] = Replicate 2, read-out: HTLV-1 IN strand transfer IC50
[3] = Replicate 3, read-out: HTLV-1 IN strand transfer IC50
[4] = integrase strand-transfer drug titration, n = 3, read-out: HTLV-1 IC50 ± stdev

T1 sequence (P03362 1168-1462): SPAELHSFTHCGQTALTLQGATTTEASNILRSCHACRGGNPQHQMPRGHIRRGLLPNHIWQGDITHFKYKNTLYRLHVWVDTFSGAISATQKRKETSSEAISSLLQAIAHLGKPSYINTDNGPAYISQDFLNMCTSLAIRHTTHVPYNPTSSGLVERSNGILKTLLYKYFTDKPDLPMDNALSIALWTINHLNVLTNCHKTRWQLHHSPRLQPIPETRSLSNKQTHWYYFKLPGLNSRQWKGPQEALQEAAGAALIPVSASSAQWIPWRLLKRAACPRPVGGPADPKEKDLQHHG

O=C(NNC(=O)c1cccc(O)c1O)c1cccc(O)c1O [XZ15, N'-(2,3-dihydroxybenzoyl)-2,3-dihydroxybenzohydrazide]
HTLV-1 IN strand transfer activity (No drug = 100) (Replicate 1): 99.084% | HTLV-1 IN strand transfer activity (No drug = 100) (Replicate 2): 89.5316% | HTLV-1 IN strand transfer activity (No drug = 100) (Replicate 3): 92.2753%

O=C(NNC(=O)c1cccc(O)c1O)c1ccccc1O [XZ45, 2,3-dihydroxy-N'-(2-hydroxybenzoyl)benzohydrazide]
HTLV-1 IN strand transfer activity (No drug = 100) (Replicate 1): 95.0641% | HTLV-1 IN strand transfer activity (No drug = 100) (Replicate 2): 107.975% | HTLV-1 IN strand transfer activity (No drug = 100) (Replicate 3): 100.183%

O=C(NN1Cc2ccc(O)c(O)c2C1=O)c1cccc(O)c1O [XZ49, N-(6,7-dihydroxy-1-oxoisoindolin-2-yl)-2,3-dihydroxybenzamide]
HTLV-1 IN strand transfer activity (No drug = 100) (Replicate 1): 94.3672% | HTLV-1 IN strand transfer activity (No drug = 100) (Replicate 2): 88.3747% | HTLV-1 IN strand transfer activity (No drug = 100) (Replicate 3): 109.808%

O=C1c2ccc(O)c(O)c2C(=O)N1Cc1ccc(F)c(Cl)c1 [XZ89, 2-(3-chloro-4-fluorobenzyl)-4,5-dihydroxyisoindoline-1,3-dione]
HTLV-1 IN strand transfer activity (No drug = 100) (Replicate 1): 87.9286% | HTLV-1 IN strand transfer activity (No drug = 100) (Replicate 2): 85.883% | HTLV-1 IN strand transfer activity (No drug = 100) (Replicate 3): 98.5818%

O=C1c2c(ccc(O)c2O)CN1Cc1ccc(F)c(Cl)c1 [XZ90, 2-(3-chloro-4-fluorobenzyl)-6,7-dihydroxyisoindolin-1-one]
HTLV-1 IN strand transfer activity (No drug = 100) (Replicate 1): 47.6981% | HTLV-1 IN strand transfer activity (No drug = 100) (Replicate 2): 83.7072% | HTLV-1 IN strand transfer activity (No drug = 100) (Replicate 3): 92.5665%

Cc1c2c(c(O)c(=O)n1C)C(=O)N(Cc1ccc(F)c(Cl)c1)C2=O [XZ202, 2-(3-chloro-4-fluorobenzyl)-7-hydroxy-4,5-dimethyl-1H-pyrrolo[3,4-c]pyridine-1,3,6(2H,5H)-trione]
HTLV-1 IN strand transfer activity (No drug = 100) (Replicate 1): 98.3269% | HTLV-1 IN strand transfer activity (No drug = 100) (Replicate 2): 98.0594% | HTLV-1 IN strand transfer activity (No drug = 100) (Replicate 3): 97.9688%

COC(=O)CCc1c2c(c(O)c(=O)n1C(C)C)C(=O)N(Cc1ccc(F)c(Cl)c1)C2=O [XZ220, methyl 3-(2-(3-chloro-4-fluorobenzyl)-7-hydroxy-5-isopropyl-1,3,6-trioxo-2,3,5,6-tetrahydro-1H-pyrrolo[3,4-c]pyridin-4-yl)propanoate]
HTLV-1 IN strand transfer activity (No drug = 100) (Replicate 1): 93.628% | HTLV-1 IN strand transfer activity (No drug = 100) (Replicate 2): 97.195% | HTLV-1 IN strand transfer activity (No drug = 100) (Replicate 3): 85.9754%

CN(C)C(=O)c1nc(O)c(O)c2c1CCN(Cc1ccc(F)c(Cl)c1)C2=O [XZ235, 6-(3-chloro-4-fluorobenzyl)-3,4-dihydroxy-N,N-dimethyl-5-oxo-5,6,7,8-tetrahydro-2,6-naphthyridine-1-carboxamide]
HTLV-1 IN strand transfer activity (No drug = 100) (Replicate 1): 50.5732% | HTLV-1 IN strand transfer activity (No drug = 100) (Replicate 2): 55.8637% | HTLV-1 IN strand transfer activity (No drug = 100) (Replicate 3): 62.5799%

Cc1c2c(c(O)c(=O)n1Cc1ccc(F)c(Cl)c1)C(=O)N(C)C2=O [XZ242, 5-(3-chloro-4-fluorobenzyl)-7-hydroxy-2,4-dimethyl-1H-pyrrolo[3,4-c]pyridine-1,3,6(2H,5H)-trione]
HTLV-1 IN strand transfer activity (No drug = 100) (Replicate 1): 115.41% | HTLV-1 IN strand transfer activity (No drug = 100) (Replicate 2): 99.061% | HTLV-1 IN strand transfer activity (No drug = 100) (Replicate 3): 100.661%

CCN1CCn2c(c3c(c(O)c2=O)C(=O)N(Cc2ccc(F)c(Cl)c2)C3=O)C1=O [XZ256, 9-(3-chloro-4-fluorobenzyl)-2-ethyl-7-hydroxy-3,4-dihydropyrrolo[3',4':3,4]pyrido[1,2-a]pyrazine-1,6,8,10(2H,9H)-tetraone]
HTLV-1 IN strand transfer activity (No drug = 100) (Replicate 1): 112.467% | HTLV-1 IN strand transfer activity (No drug = 100) (Replicate 2): 93.5244% | HTLV-1 IN strand transfer activity (No drug = 100) (Replicate 3): 114.376%

CN(C)S(=O)(=O)c1cc(O)c(O)c2c1CN(Cc1ccc(F)c(Cl)c1)C2=O [XZ259, 2-(3-chloro-4-fluorobenzyl)-6,7-dihydroxy-N,N-dimethyl-1-oxoisoindoline-4-sulfonamide]
HTLV-1 IN strand transfer activity (No drug = 100) (Replicate 1): 63.0889% | HTLV-1 IN strand transfer activity (No drug = 100) (Replicate 2): 67.971% | HTLV-1 IN strand transfer activity (No drug = 100) (Replicate 3): 68.9907%

[N-]=[N+]=NCc1cccc(C(=O)/C=C(\O)C(=O)O)c1 [XZ319, (Z)-4-(3-(azidomethyl)phenyl)-2-hydroxy-4-oxobut-2-enoic acid]
HTLV-1 IN strand transfer activity (No drug = 100) (Replicate 1): 88.4055% | HTLV-1 IN strand transfer activity (No drug = 100) (Replicate 2): 92.5212% | HTLV-1 IN strand transfer activity (No drug = 100) (Replicate 3): 100.53%

O=C(O)/C(O)=C/C(=O)c1cc(OCc2ccccc2)cc(OCc2ccccc2)c1 [XZ320, (Z)-4-(3,5-bis(benzyloxy)phenyl)-2-hydroxy-4-oxobut-2-enoic acid, reference compound]
HTLV-1 IN strand transfer activity (No drug = 100) (Replicate 1): 35.3455% | HTLV-1 IN strand transfer activity (No drug = 100) (Replicate 2): 62.3815% | HTLV-1 IN strand transfer activity (No drug = 100) (Replicate 3): 55.2426%

O=C(NCc1ccc(F)cc1F)c1c(O)c2cccnc2n(O)c1=O [XZ351, N-(2,4-difluorobenzyl)-1,4-dihydroxy-2-oxo-1,2-dihydro-1,8-naphthyridine-3-carboxamide]
HTLV-1 IN strand transfer activity (No drug = 100) (Replicate 1): 30.0691% | HTLV-1 IN strand transfer activity (No drug = 100) (Replicate 2): 57.1529% | HTLV-1 IN strand transfer activity (No drug = 100) (Replicate 3): 59.6295%

O=C(NCc1ccc(F)cc1F)c1c(NCCO)c2cccnc2n(O)c1=O [XZ378, N-(2,4-difluorobenzyl)-1-hydroxy-4-((2-hydroxyethyl)amino)-2-oxo-1,2-dihydro-1,8-naphthyridine-3-carboxamide]
HTLV-1 IN strand transfer activity (No drug = 100) (Replicate 1): 14.3053% | HTLV-1 IN strand transfer activity (No drug = 100) (Replicate 2): 44.0798% | HTLV-1 IN strand transfer activity (No drug = 100) (Replicate 3): 36.7031% | IC50 [1]: 0.311 µM | IC50 [2]: 0.474 µM | IC50 [3]: 0.392 µM | IC50 compared with that of RAL: no significant improvement over RAL | inhibition of HTLV-1 IN in the screen compared with RAL (each compound at 634 nM): outperformed RAL | IC50 [4]: 0.397 ± 0.064 µM

Nc1c(C(=O)NCc2ccc(F)cc2F)c(=O)n(O)c2nc(N3CCOCC3)ccc12 [XZ413, 4-amino-N-(2,4-difluorobenzyl)-1-hydroxy-7-morpholino-2-oxo-1,2-dihydro-1,8-naphthyridine-3-carboxamide]
HTLV-1 IN strand transfer activity (No drug = 100) (Replicate 1): 103.686% | HTLV-1 IN strand transfer activity (No drug = 100) (Replicate 2): 92.8191% | HTLV-1 IN strand transfer activity (No drug = 100) (Replicate 3): 81.1252%

Nc1c(C(=O)NCc2ccc(F)cc2F)c(=O)n(O)c2ncc(-c3ccccc3)cc12 [XZ420, 4-amino-N-(2,4-difluorobenzyl)-1-hydroxy-2-oxo-6-phenyl-1,2-dihydro-1,8-naphthyridine-3-carboxamide]
HTLV-1 IN strand transfer activity (No drug = 100) (Replicate 1): 20.0015% | HTLV-1 IN strand transfer activity (No drug = 100) (Replicate 2): 29.6468% | HTLV-1 IN strand transfer activity (No drug = 100) (Replicate 3): 21.6983% | IC50 [1]: 0.276 µM | IC50 [2]: 0.499 µM | IC50 [3]: 0.466 µM | IC50 compared with that of RAL: no significant improvement over RAL | IC50 [4]: 0.411 ± 0.093 µM

Nc1c(C(=O)NCc2ccc(F)cc2F)c(=O)n(O)c2ncc(CCCOCCO)cc12 [XZ432, 4-amino-N-(2,4-difluorobenzyl)-1-hydroxy-6-(3-(2-hydroxyethoxy)propyl)-2-oxo-1,2-dihydro-1,8-naphthyridine-3-carboxamide]
HTLV-1 IN strand transfer activity (No drug = 100) (Replicate 1): 18.6132% | HTLV-1 IN strand transfer activity (No drug = 100) (Replicate 2): 21.9961% | HTLV-1 IN strand transfer activity (No drug = 100) (Replicate 3): 19.5014% | IC50 [1]: 0.177 µM | IC50 [2]: 0.156 µM | IC50 [3]: 0.173 µM | IC50 [4]: 0.168 ± 0.017 µM

O=C(NCc1ccc(F)cc1F)c1c(NCCO)c2cc(CCCCCO)cnc2n(O)c1=O [XZ439, N-(2,4-difluorobenzyl)-1-hydroxy-4-((2-hydroxyethyl)amino)-6-(5-hydroxypentyl)-2-oxo-1,2-dihydro-1,8-naphthyridine-3-carboxamide]
HTLV-1 IN strand transfer activity (No drug = 100) (Replicate 1): 27.6089% | HTLV-1 IN strand transfer activity (No drug = 100) (Replicate 2): 29.3463% | HTLV-1 IN strand transfer activity (No drug = 100) (Replicate 3): 25.7676% | IC50 [1]: 0.27 µM | IC50 [2]: 0.239 µM | IC50 [3]: 0.232 µM

CC(C)NC(=O)/C=C/c1cnc2c(c1)c(N)c(C(=O)NCc1ccc(F)cc1F)c(=O)n2O [XZ452, (E)-4-amino-N-(2,4-difluorobenzyl)-1-hydroxy-6-(3-(isopropylamino)-3-oxoprop-1-en-1-yl)-2-oxo-1,2-dihydro-1,8-naphthyridine-3-carboxamide]
HTLV-1 IN strand transfer activity (No drug = 100) (Replicate 1): 11.3751% | HTLV-1 IN strand transfer activity (No drug = 100) (Replicate 2): 23.2017% | HTLV-1 IN strand transfer activity (No drug = 100) (Replicate 3): 17.2877% | IC50 [1]: 0.174 µM | IC50 [2]: 0.162 µM | IC50 [3]: 0.229 µM | IC50 [4]: 0.182 ± 0.0447 µM
